Assay results from US20240008524A1, “CONSUMABLE” (Nicoventures Trading Limited, priority 2020, published 2024).
In brackets after ≈: the same amount, converted by molar mass.

experiment: Water solubility of flavoring agents and their flavor glucosides; conditions: not given

Which “Flavoring Agent water solubility” value does the source give for `Cc1ccc(C(C)C)cc1O` [Carvacrol] here?
The value was 1.25 mg/mL.

With `COc1cc(CO)ccc1O[C@@H]1O[C@H](CO)[C@@H](O)[C@H](O)[C@H]1O` [Vanillin-Alcohol glucoside, 3-methoxy-benzyl alcohol-4-O-β-D-glucopyranoside] as the molecule, how does the “increase of water solubility (glucoside vs flavoring agent)” value read?
Its value is 32 ×.

same assay, conditions: flavoring agent in the form of its flavor glucoside; water

Which “Glucoside water solubility” value does the source give for `CCCCCCO[C@@H]1O[C@H](CO)[C@@H](O)[C@H](O)[C@H]1O` [1-Hexanol glucoside, hex-1-yl-O-β-D-glucopyranoside] here?
The value was 676 mg/mL.

With `C=CC(CCCCC)O[C@@H]1O[C@H](CO)[C@@H](O)[C@H](O)[C@H]1O` (stereo partly drawn) [1-Octen-3-ol glucoside, 1-octen-3-yl-O-β-D-glucopyranoside] as the molecule, how does the “Glucoside water solubility” value read?
The value was 200 mg/mL.

With `OC[C@H]1O[C@@H](OCCc2ccccc2)[C@H](O)[C@@H](O)[C@@H]1O` [2-Phenylethanol glucoside, 2-phenyleth-1-yl-O-β-D-glucopyranoside] as the molecule, how does the “Glucoside water solubility” value read?
The value was 833 mg/mL.

For `CC(C)=CCCC(C)CCO[C@@H]1O[C@H](CO)[C@@H](O)[C@H](O)[C@H]1O` (stereo partly drawn) [Citronellol glucoside, 3,7-dimethyl-6-octen-1-yl-O-β-D-glucopyranoside], which “Glucoside water solubility” value is on record?
The value was 519 mg/mL.

For `CCc1occc(=O)c1O[C@@H]1O[C@H](CO)[C@@H](O)[C@H](O)[C@H]1O` [Ethylmaltol glucoside, 2-ethyl-4H-pyran-4-one-3-O-β-D-glucopyranoside], which “Glucoside water solubility” value is on record?
Its value is 662 mg/mL.

Which “Glucoside water solubility” value does the source give for `C=CCc1ccc(O[C@@H]2O[C@H](CO)[C@@H](O)[C@H](O)[C@H]2O)c(OC)c1` [Eugenol glucoside, 2-methoxy-4-(2-propen-1-yl)phenyl-O-β-D-glucopyranoside] here?
The value was 15.1 mg/mL.

For `CC(C)=CCCC(C)=CCCC(C)=CCO[C@@H]1O[C@H](CO)[C@@H](O)[C@H](O)[C@H]1O` [Farnesol glucoside, 3,7,11-trimethyl-2,6,10-dodecatrien-1-yl-O-β-D-glucopyranoside], which “Glucoside water solubility” value is on record?
The value was 1 mg/mL.

For `CC12CCC(C1)C(C)(C)C2O[C@@H]1O[C@H](CO)[C@@H](O)[C@H](O)[C@H]1O` (stereo partly drawn) [Fenchol glucoside, 1,3,3-trimethyl-bicyclo[2.2.1]heptan-2-yl-O-β-D-glucopyranoside], which “Glucoside water solubility” value is on record?
Its value is 4 mg/mL.

With `CC1=C(O[C@@H]2O[C@H](CO)[C@@H](O)[C@H](O)[C@H]2O)C(=O)C(C)O1` (stereo partly drawn) [Furaneol glucoside, 2,5-dimethyl-3(2H)-furanone-4-O-β-D-glucopyranoside] as the molecule, how does the “Glucoside water solubility” value read?
Its value is 731 mg/mL.

Which “Glucoside water solubility” value does the source give for `CC(C)=CCC/C(C)=C/CO[C@@H]1O[C@H](CO)[C@@H](O)[C@H](O)[C@H]1O` [Geraniol glucoside, (2E)-3,7-dimethyl-2,6-octadien-1-yl-O-β-D-glucopyranoside] here?
The value was 627 mg/mL.

Which “Glucoside water solubility” value does the source give for `C=CC(C)(CCC=C(C)C)O[C@@H]1O[C@H](CO)[C@@H](O)[C@H](O)[C@H]1O` (stereo partly drawn) [Linalool glucoside, 1-ethenyl-1,5-dimethyl-4-hexen-1-yl-O-β-D-glucopyranoside] here?
Its value is 564 mg/mL.

Which “Glucoside water solubility” value does the source give for `Cc1occc(=O)c1O[C@@H]1O[C@H](CO)[C@@H](O)[C@H](O)[C@H]1O` [Maltol glucoside, 2-methyl-4H-pyran-4-one-3-O-β-D-glucopyranoside] here?
Its value is 535 mg/mL.

Which “Glucoside water solubility” value does the source give for `CCC1OC(=O)C(O[C@@H]2O[C@H](CO)[C@@H](O)[C@H](O)[C@H]2O)=C1C` (stereo partly drawn) [Maple furanone glucoside, 5-ethyl-3-hydroxy-4-methyl-2(5H)-furanone-3-O-β-D-glucopyranoside] here?
The value was 772 mg/mL.

With `COC(=O)c1ccccc1N[C@@H]1O[C@H](CO)[C@@H](O)[C@H](O)[C@H]1O` [Methylanthranilate glucoside, methyl-2-aminobenzoate-N-β-D-glucopyranoside] as the molecule, how does the “Glucoside water solubility” value read?
The value was 35 mg/mL.

With `CC1(C)C2CC=C(CO[C@@H]3O[C@H](CO)[C@@H](O)[C@H](O)[C@H]3O)C1C2` (stereo partly drawn) [Myrtenol glucoside, 6,6-dimethylbicyclo(3.1.1)hept-2-ene-2-methyl-O-β-D-glucopyranoside] as the molecule, how does the “Glucoside water solubility” value read?
Its value is 525 mg/mL.

With `CC(C)=CCC/C(C)=C\CO[C@@H]1O[C@H](CO)[C@@H](O)[C@H](O)[C@H]1O` [Nerol glucoside, (2Z)-3,7-dimethyl-2,6-octadien-1-yl-O-β-D-glucopyranoside] as the molecule, how does the “Glucoside water solubility” value read?
The value was 16.6 mg/mL.

For `C=C(C)C1CC=C(CO[C@@H]2O[C@H](CO)[C@@H](O)[C@H](O)[C@H]2O)CC1` (stereo partly drawn) [Perillyl alcohol glucoside, p-mentha-1,8-dien-7-yl-O-β-D-glucopyranoside], which “Glucoside water solubility” value is on record?
Its value is 485 mg/mL.

With `CC1=C(O[C@@H]2O[C@H](CO)[C@@H](O)[C@H](O)[C@H]2O)C(=O)OC1C` (stereo partly drawn) [Sotolon glucoside, 4,5-dimethylfuran-2(5H)-one-3-O-β-D-glucopyranoside] as the molecule, how does the “Glucoside water solubility” value read?
The value was 502 mg/mL.

With `COc1cc(CO)ccc1O[C@@H]1O[C@H](CO)[C@@H](O)[C@H](O)[C@H]1O` [Vanillin-Alcohol glucoside, 3-methoxy-benzyl alcohol-4-O-β-D-glucopyranoside] as the molecule, how does the “Glucoside water solubility” value read?
Its value is 62 mg/mL.

For `CC/C=C\CCO[C@@H]1O[C@H](CO)[C@@H](O)[C@H](O)[C@H]1O` [cis-3-Hexen-1-ol glucoside, (3Z)-3-hexen-1-yl-O-β-D-glucopyranoside], which “Glucoside water solubility” value is on record?
Its value is 598 mg/mL.

Which “Glucoside water solubility” value does the source give for “(2/5)-ethyl-5 (or 2)-methyl-3(2H)-furanone-4-O-β-D-glucopyranoside [Homofuraneol glucoside]” here?
Its value is 749 mg/mL.

Which “Glucoside water solubility” value does the source give for “(S)-2-(4-methyl-3-cyclohexenyl)-2-propanyl-O-β-D-glucopyranoside [Alpha-Terpineol glucoside]” here?
Its value is 172 mg/mL.

same assay, conditions: free flavoring agent, not bound to sugar; water

With `OCCc1ccccc1` [2-Phenylethanol] as the molecule, how does the “Flavoring Agent water solubility” value read?
Its value is 21.99 mg/mL.

Which “Flavoring Agent water solubility” value does the source give for `CCc1occc(=O)c1O` [Ethylmaltol] here?
Its value is 24.23 mg/mL.

Which “Flavoring Agent water solubility” value does the source give for `CCC1OC(C)=C(O)C1=O` (centres unmarked) [Homofuraneol] here?
Its value is 6.178 mg/mL.

With `CCC1OC(=O)C(O)=C1C` (centres unmarked) [Maple furanone] as the molecule, how does the “Flavoring Agent water solubility” value read?
The value was 74.39 mg/mL.

Which “Flavoring Agent water solubility” value does the source give for `CC1(C)C2CC=C(CO)C1C2` (centres unmarked) [Myrtenol] here?
Its value is 0.261 mg/mL.

Which “Flavoring Agent water solubility” value does the source give for `Oc1ccc2c(c1)OCO2` [Sesamol] here?
The value was 14.65 mg/mL.

For `CC1=C(O)C(=O)OC1C` (centres unmarked) [Sotolon], which “Flavoring Agent water solubility” value is on record?
The value was 22.28 mg/mL.

With `COc1cc(CO)ccc1O` [Vanillin-Alcohol] as the molecule, how does the “Flavoring Agent water solubility” value read?
Its value is 2 mg/mL.

same assay, conditions: free flavoring agent; at 25° C.

With `COc1cc(CO)ccc1O` [Vanillin-Alcohol] as the molecule, how does the water solubility read?
Its water solubility is “approximately 2 g/I”.

same assay, conditions: water

For `C=CC(O)CCCCC` (centres unmarked) [1-Octen-3-ol], which solubility is on record?
Its solubility is 1.84 mg/mL (≈ 14.3 mM).

For `CC1=CCC(C(C)(C)O)CC1` (stereo not drawn) [Alpha-Terpineol], which solubility is on record?
The solubility was 0.71 mg/mL (≈ 4.6 mM).

For `CC(C)=CCCC(C)CCO` (centres unmarked) [Citronellol], which solubility is on record?
Its solubility is 0.106 mg/mL (≈ 0.678 mM).

Which solubility does the source give for `C=CCc1ccc(O)c(OC)c1` [Eugenol] here?
Its solubility is 2.46 mg/mL (≈ 15 mM).

For `CC(C)=CCCC(C)=CCCC(C)=CCO` [Farnesol], which solubility is on record?
Its solubility is 0.00129 mg/mL (≈ 0.0058 mM).

Which solubility does the source give for `CC12CCC(C1)C(C)(C)C2O` (centres unmarked) [Fenchol] here?
Its solubility is 0.461 mg/mL (≈ 2.99 mM).

Which solubility does the source give for `CC1=C(O)C(=O)C(C)O1` (centres unmarked) [Furaneol] here?
The solubility was 18.5 mg/mL (≈ 144 mM).

For `CC(C)=CCC/C(C)=C/CO` [Geraniol], which solubility is on record?
The solubility was 0.1 mg/mL (≈ 0.648 mM).

Which solubility does the source give for `C=CC(C)(O)CCC=C(C)C` (centres unmarked) [Linalool] here?
Its solubility is 0.68 mg/mL (≈ 4.41 mM).

With `Cc1occc(=O)c1O` [Maltol] as the molecule, how does the solubility read?
Its solubility is 10.9 mg/mL (≈ 86.4 mM).

With `CC1CCC(C(C)C)C(O)C1` (centres unmarked) [Menthol] as the molecule, how does the solubility read?
The solubility was 0.49 mg/mL (≈ 3.14 mM).

With `CC(C)=CCC/C(C)=C\CO` [Nerol] as the molecule, how does the solubility read?
Its solubility is 0.256 mg/mL (≈ 1.66 mM).

With `C=C(C)[C@@H]1CC=C(CO)CC1` [Perillyl alcohol] as the molecule, how does the solubility read?
Its solubility is 0.471 mg/mL (≈ 3.09 mM).

Which solubility does the source give for `CC/C=C\CCO` [cis-3-Hexen-1-ol] here?
Its solubility is 16 mg/mL (≈ 160 mM).
